Read-outs that look alike come from different tables or passages of the source.
Key:
[1] = target: human GABAA α2β2γ1 receptor (Homo sapiens (Human), UniProt P47869+Q8N1C3); experiment: Radioligand binding assay, competition for [3H]RO7239181, γ1-containing GABAA subtype α2β2γ1; conditions: for γ2/γ1 Selectivity Ratio: Ki α1β3γ2 (nM)/Ki α2β2γ1 (nM); for LogSel: Log[Ki α1β3γ2 (nM)/Ki α2β2γ1 (nM)]
[2] = target: human GABAA α1β3γ2 receptor (Homo sapiens (Human), UniProt P14867+P18507); experiment: Radioligand binding assay, competition for [3H]Flumazenil, γ2-containing GABAA subtype α1β3γ2
h-GABA-A α2β2γ1 = h-GABA-A α2β2γ1 (Homo sapiens (Human), UniProt P47869+Q8N1C3); experiment: Two-electrode voltage clamp electrophysiology in Xenopus oocytes expressing GABAA receptors, modulation of GABA EC20 current; format: cell-based; conditions: for Efficacy (GABA) %: % modulation of GABA EC20 = 100*(Fold increase−1), compound at 30-fold Ki α2β2γ1; for Fold increase h-GABA-A α2β2γ1 oocyte @ 30-fold Ki: Xenopus oocytes, GABA EC20, test compound at approx. 30-fold its Ki α2β2γ1
[3] = Table 2, membranes of HEK293F cells, [3H]RO7239181, read-out: Ki h-GABAA α2β2γ1
[4] = membranes of HEK293F cells, [3H]RO7239181 20-30 nM, mean of two determinations, read-out: Ki h-GABAA α2β2γ1
[5] = HEK293F cell membranes, [3H]Flumazenil 1 nM, mean of two determinations, read-out: Ki h-GABAA α1β3γ2
[6] = read-out: Ki h-GABAA α2β2γ1, Table 2, membranes of HEK293F cells, [3H]RO7239181

CCO/C=C/c1cn2c(nc1=O)[C@H](C)N=C(c1c(F)cccc1F)c1c-2ccc(C(F)(F)F)c1Cl [Example 18, (5S)-8-chloro-7-(2,6-difluorophenyl)-2-[(E)-2-ethoxyvinyl]-5-methyl-9-(trifluoromethyl)-5H-pyrimido[1,2-a][1,4]benzodiazepin-3-one]
γ2/γ1 Selectivity Ratio [1]: 104.6
LogSel [1]: 2.02
Ki [1, 3]: 60.6 nM
Ki [1, 4]: 60.6 nM
Ki [2, 5]: 6340 nM
Efficacy (GABA) % (h-GABA-A α2β2γ1): 89%
Fold increase h-GABA-A α2β2γ1 oocyte @ 30-fold Ki (h-GABA-A α2β2γ1): 1.89

C[C@@H]1N=C(c2c(F)cccc2F)c2c(ccc(Cl)c2Cl)-n2ccc(=O)nc21 [Example 4, (5S)-8,9-dichloro-7-(2,6-difluorophenyl)-5-methyl-5H-pyrimido[1,2-a][1,4]benzodiazepin-3-one]
Ki [1]: 13.3 nM
γ2/γ1 Selectivity Ratio [1]: 68.7
LogSel [1]: 1.84
Ki [1, 6]: 13.3 nM
Ki [2]: 912 nM
Efficacy (GABA) % (h-GABA-A α2β2γ1): 105%
Fold increase h-GABA-A α2β2γ1 oocyte @ 30-fold Ki (h-GABA-A α2β2γ1): 2.05

CCO/C=C/c1cn2c(nc1=O)CN=C(c1c(F)cccc1F)c1c-2ccc(Cl)c1Cl [Example 22, 8,9-dichloro-7-(2,6-difluorophenyl)-2-[(E)-2-ethoxyvinyl]-5H-pyrimido[1,2-a][1,4]benzodiazepin-3-one]
γ2/γ1 Selectivity Ratio [1]: 73.8
LogSel [1]: 1.87
Ki [1, 3]: 15.3 nM
Ki [1, 4]: 15.3 nM
Ki [2, 5]: 1130 nM
Efficacy (GABA) % (h-GABA-A α2β2γ1): 113%
Fold increase h-GABA-A α2β2γ1 oocyte @ 30-fold Ki (h-GABA-A α2β2γ1): 2.13

C[C@@H]1N=C(c2c(F)cccc2F)c2c(ccc(C(F)(F)F)c2Cl)-n2ccc(=O)nc21 [Example 10, (5S)-8-chloro-7-(2,6-difluorophenyl)-5-methyl-9-(trifluoromethyl)-5H-pyrimido[1,2-a][1,4]benzodiazepin-3-one]
Ki [1]: 54.6 nM
γ2/γ1 Selectivity Ratio [1]: 112.1
LogSel [1]: 2.05
Ki [1, 6]: 54.6 nM
Ki [2]: 6120 nM
Efficacy (GABA) % (h-GABA-A α2β2γ1): 164%
Fold increase h-GABA-A α2β2γ1 oocyte @ 30-fold Ki (h-GABA-A α2β2γ1): 2.64

CCO/C=C/c1cn2c(nc1=O)[C@H](C)N=C(c1c(F)cccc1F)c1c-2ccc(Cl)c1Cl [Example 19, (5S)-8,9-dichloro-7-(2,6-difluorophenyl)-2-[(E)-2-ethoxyvinyl]-5-methyl-5H-pyrimido[1,2-a][1,4]benzodiazepin-3-one]
γ2/γ1 Selectivity Ratio [1]: 48.4
LogSel [1]: 1.68
Ki [1, 3]: 24.1 nM
Ki [1, 4]: 24.1 nM
Ki [2, 5]: 1170 nM
Efficacy (GABA) % (h-GABA-A α2β2γ1): 104%
Fold increase h-GABA-A α2β2γ1 oocyte @ 30-fold Ki (h-GABA-A α2β2γ1): 2.04

CCOCCc1cn2c(nc1=O)CN=C(c1c(F)cccc1F)c1c-2ccc(C(F)(F)F)c1Cl [Example 26, 8-chloro-7-(2,6-difluorophenyl)-2-(2-ethoxyethyl)-9-(trifluoromethyl)-5H-pyrimido[1,2-a][1,4]benzodiazepin-3-one]
γ2/γ1 Selectivity Ratio [1]: 400.1
LogSel [1]: 2.60
Ki [1, 3]: 75 nM
Ki [1, 4]: 75 nM
Ki [2, 5]: > 30000 nM
Efficacy (GABA) % (h-GABA-A α2β2γ1): 113%
Fold increase h-GABA-A α2β2γ1 oocyte @ 30-fold Ki (h-GABA-A α2β2γ1): 2.13

O=c1ccn2c(n1)CN=C(c1c(F)cccc1F)c1c-2ccc(Cl)c1Cl [Example 2, 8,9-dichloro-7-(2,6-difluorophenyl)-5H-pyrimido[1,2-a][1,4]benzodiazepin-3-one]
Ki [1]: 9.7 nM
γ2/γ1 Selectivity Ratio [1]: 47.7
LogSel [1]: 1.68
Ki [1, 6]: 9.7 nM
Ki [2]: 462 nM
Efficacy (GABA) % (h-GABA-A α2β2γ1): 88%
Fold increase h-GABA-A α2β2γ1 oocyte @ 30-fold Ki (h-GABA-A α2β2γ1): 1.88

CCOCCc1cn2c(nc1=O)[C@H](C)N=C(c1c(F)cccc1F)c1c-2ccc(Cl)c1Cl [Example 21, (5S)-8,9-dichloro-7-(2,6-difluorophenyl)-2-(2-ethoxyethyl)-5-methyl-5H-pyrimido[1,2-a][1,4]benzodiazepin-3-one]
γ2/γ1 Selectivity Ratio [1]: 61.6
LogSel [1]: 1.79
Ki [1, 3]: 23.3 nM
Ki [1, 4]: 23.3 nM
Ki [2, 5]: 1440 nM
Efficacy (GABA) % (h-GABA-A α2β2γ1): 113%
Fold increase h-GABA-A α2β2γ1 oocyte @ 30-fold Ki (h-GABA-A α2β2γ1): 2.13

Source: patent US20240287082A1, “NEW BENZODIAZEPINE DERIVATIVES AS GABA A GAMMA1 PAM” (Hoffmann-La Roche Inc., priority 2021, published 2024)
